{"source": "patent US10253002B2", "about": "“Compounds and methods of treating infections” (Neoculi Pty Ltd., priority 2013, dated 2019)", "key": {"Pseudomonas aeruginosa": {"system": "Pseudomonas aeruginosa", "test": "Broth microdilution MIC, Example 7 (NCL812 and analogues)", "assay_type": "cell-based", "conditions": "Pseudomonas #008, 24 hours"}, "S. aureus ATCC29213": {"system": "S. aureus ATCC29213", "test": "Broth microdilution MIC, Example 7 (NCL analogues), Table 42", "assay_type": "cell-based, Staphylococcus aureus", "conditions": "S. aureus ATCC29213, 24 hours"}, "E. faecalis #32": {"system": "E. faecalis #32", "test": "Broth microdilution MIC, Example 7 (NCL analogues), Table 42", "assay_type": "cell-based, Enterococcus faecalis", "conditions": "E. faecalis #32, 24 hours"}, "Escherichia coli": {"system": "Escherichia coli", "test": "Broth microdilution MIC, Example 7 (NCL812 and analogues)", "assay_type": "cell-based", "conditions": "E. coli ATCC25922, 24 hours"}, "[1]": {"system": "Staphylococcus aureus T3-129 / Staphylococcus spp. MK1", "test": "Synergy studies, checkerboard method (FIC index)", "assay_type": "cell-based", "conditions": "for FICI: FIC index of antibiotic with NCL812; for Antibiotic MIC With NCL812: antibiotic in combination with NCL812; for Result (interaction with NCL812): antibiotic with NCL812"}, "S. pneumoniae isolates": {"system": "S. pneumoniae isolates", "test": "Disk diffusion susceptibility (CLSI/EUCAST), Example 5", "assay_type": "cell-based, Streptococcus pneumoniae", "in_short": "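Susceptibility to 12 antimicrobials was categorised (S/I/R) using CLSI breakpoints from zones of complete inhibition, read thrice to the nearest millimetre with the mode taken. Incubation was 16–24 h, 37 °C, 5% CO2.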"}, "[2]": {"system": "S. aureus isolates (HA-MRSA, CA-MRSA, methicillin-susceptible staphylococci)", "test": "Kirby-Bauer disc diffusion resistotyping, Example 4", "assay_type": "cell-based, Staphylococcus aureus", "conditions": "for Total isolates resistant (Kirby-Bauer disc diffusion): all isolates (n = 30)", "method": "Antibiotic-susceptibility profiling of the isolate collection was undertaken using Kirby-Bauer disc diffusion, as recommended by the Clinical and Laboratory Standards Institute (CLSI) on Mueller-Hinton agar. Isolates were grown overnight on SBA at 37° C. Colonies were suspended in physiological saline. Turbidity was adjusted to a 0.5 McFarland standard and suspensions were spread over the medium. Antibiotic discs according to Table 9 below were transferred onto the inoculated medium and analysed after 24 h incubation at 37° C."}, "[3]": {"conditions": "Methicillin-susceptible staphylococci (n = 10)"}}, "note": "Values joined by “and” are separate entries in the source; they are usually repeats but may differ in a detail not shown here. Equal entries are not always repeated.", "data": [{"compound": "Nc1nc(N/N=C/c2ccc(Cl)cc2)cc(N/N=C/c2ccc(Cl)cc2)n1", "note": "[NCL 179]", "values": [{"measurement": "MIC (μg/ml) at 24 hours Pseudomonas #008", "setting": "Pseudomonas aeruginosa", "value": ">64", "unit": "µg/mL"}, {"measurement": "MIC (μg/ml) at 24 hours S. aureus ATCC29213", "setting": "S. aureus ATCC29213", "value": 4, "unit": "µg/mL"}, {"measurement": "MIC (μg/ml) at 24 hours E. faecalis #32", "setting": "E. faecalis #32", "value": 8, "unit": "µg/mL"}, {"measurement": "MIC (μg/ml) at 24 hours E. coli ATCC25922", "setting": "Escherichia coli", "value": ">64", "unit": "µg/mL"}]}, {"compound": "CC1(C)S[C@@H]2[C@H](NC(=O)Cc3ccccc3)C(=O)N2[C@H]1C(=O)O", "note": "[Penicillin G]", "values": [{"measurement": "FICI", "setting": "[1]; Staphylococcus spp. Strain MK1", "value": "1 and 0.625"}, {"measurement": "Antibiotic MIC Alone", "setting": "[1]; Staphylococcus spp. Strain MK1", "value": "0.125 µg/mL and 0.25 µg/mL"}, {"measurement": "Antibiotic MIC With NCL812", "setting": "[1]; Staphylococcus spp. Strain MK1", "value": "0.062 µg/mL and 0.031 µg/mL"}, {"measurement": "Result (interaction with NCL812)", "setting": "[1]; Staphylococcus spp. Strain MK1", "value": "NE (No effect (NE) was defined as 0.5<FICI<4)"}]}, {"compound": "Cc1cc(NS(=O)(=O)c2ccc(N)cc2)no1", "note": "[Sulfamethoxazole]", "values": [{"measurement": "FICI", "setting": "[1]; Staphylococcus spp. Strain MK1", "value": "0.75 and 1"}, {"measurement": "FIC1", "setting": "[1]; Staphylococcus spp. Strain MK1, MIC of antibiotic in combination with NCL812/MIC of antibiotic alone", "value": 0.5}, {"measurement": "Antibiotic MIC Alone", "setting": "[1]; Staphylococcus spp. Strain MK1", "value": 8, "unit": "µg/mL"}, {"measurement": "Antibiotic MIC With NCL812", "setting": "[1]; Staphylococcus spp. Strain MK1", "value": 4, "unit": "µg/mL"}, {"measurement": "Result (interaction with NCL812)", "setting": "[1]; Staphylococcus spp. Strain MK1", "value": "NE (No effect (NE) was defined as 0.5<FICI<4)"}]}, {"compound": "CN(C)[C@@H]1C(O)=C(C(N)=O)C(=O)[C@@]2(O)C(O)=C3C(=O)c4c(O)cccc4[C@@](C)(O)[C@H]3C[C@@H]12", "note": "[Tetracycline]", "values": [{"measurement": "disk diffusion zone diameter", "setting": "S. pneumoniae isolates; A66.1", "value": 32, "unit": "mm"}, {"measurement": "disk diffusion zone diameter", "setting": "S. pneumoniae isolates; D39", "value": 35, "unit": "mm"}, {"measurement": "disk diffusion zone diameter", "setting": "S. pneumoniae isolates; EF3030", "value": 34, "unit": "mm"}, {"measurement": "disk diffusion zone diameter", "setting": "S. pneumoniae isolates; L82016", "value": 32, "unit": "mm"}, {"measurement": "disk diffusion zone diameter", "setting": "S. pneumoniae isolates; P9", "value": 32, "unit": "mm"}, {"measurement": "disk diffusion zone diameter", "setting": "S. pneumoniae isolates; P21", "value": 38, "unit": "mm"}, {"measurement": "disk diffusion zone diameter", "setting": "S. pneumoniae isolates; TIGR4", "value": 35, "unit": "mm"}, {"measurement": "disk diffusion zone diameter", "setting": "S. pneumoniae isolates; WCH16", "value": 18, "unit": "mm"}, {"measurement": "disk diffusion susceptibility category", "setting": "S. pneumoniae isolates; WCH16 (Table 19)", "value": "R"}, {"measurement": "disk diffusion zone diameter", "setting": "S. pneumoniae isolates; WCH43", "value": 31, "unit": "mm"}, {"measurement": "disk diffusion zone diameter", "setting": "S. pneumoniae isolates; WCH46", "value": 30, "unit": "mm"}, {"measurement": "disk diffusion zone diameter", "setting": "S. pneumoniae isolates; WCH57", "value": 48, "unit": "mm"}, {"measurement": "disk diffusion zone diameter", "setting": "S. pneumoniae isolates; WCH77", "value": 39, "unit": "mm"}, {"measurement": "disk diffusion zone diameter", "setting": "S. pneumoniae isolates; WCH86", "value": 31, "unit": "mm"}, {"measurement": "disk diffusion zone diameter", "setting": "S. pneumoniae isolates; WCH89", "value": 35, "unit": "mm"}, {"measurement": "disk diffusion zone diameter", "setting": "S. pneumoniae isolates; WCH92", "value": 29, "unit": "mm"}, {"measurement": "disk diffusion zone diameter", "setting": "S. pneumoniae isolates; WCH137", "value": 37, "unit": "mm"}, {"measurement": "disk diffusion zone diameter", "setting": "S. pneumoniae isolates; WCH158", "value": 35, "unit": "mm"}, {"measurement": "disk diffusion zone diameter", "setting": "S. pneumoniae isolates; WCH184", "value": 11, "unit": "mm"}, {"measurement": "disk diffusion susceptibility category", "setting": "S. pneumoniae isolates; WCH184 (Table 19)", "value": "R"}, {"measurement": "disk diffusion zone diameter", "setting": "S. pneumoniae isolates; WCH211", "value": "36-37 mm"}, {"measurement": "disk diffusion zone diameter", "setting": "S. pneumoniae isolates; WU2", "value": 34, "unit": "mm"}, {"measurement": "FICI", "setting": "[1]; S. aureus strain T3-29", "value": "0.625 and 0.75 and 0.62"}, {"measurement": "Antibiotic MIC Alone", "setting": "[1]; S. aureus strain T3-29", "value": "0.25 µg/mL and 0.5 µg/mL"}, {"measurement": "Result (interaction with NCL812)", "setting": "[1]; S. aureus strain T3-29", "value": "NE (No effect (NE) was defined as 0.5<FICI<4)"}, {"measurement": "isolates resistant (Kirby-Bauer disc diffusion)", "setting": "[2]; CA-MRSA (n = 10)", "value": 30.00, "unit": "%"}, {"measurement": "isolates resistant (Kirby-Bauer disc diffusion)", "setting": "[2]; HA-MRSA (n = 10)", "value": 30.00, "unit": "%"}, {"measurement": "isolates resistant (Kirby-Bauer disc diffusion)", "setting": "[2]; [3]", "value": 0.00, "unit": "%"}, {"measurement": "Total isolates resistant (Kirby-Bauer disc diffusion)", "setting": "[2]", "value": 20.00, "unit": "%"}]}, {"compound": "Gentamicin", "values": [{"measurement": "FICI", "setting": "[1]; Staphylococcus spp. Strain MK1", "value": "0.625 and 0.75 and 0.515"}, {"measurement": "Antibiotic MIC Alone", "setting": "[1]; Staphylococcus spp. Strain MK1", "value": "1 µg/mL and 0.5 µg/mL"}, {"measurement": "Result (interaction with NCL812)", "setting": "[1]; Staphylococcus spp. Strain MK1", "value": "NE (No effect (NE) was defined as 0.5<FICI<4)"}, {"measurement": "isolates resistant (Kirby-Bauer disc diffusion)", "setting": "[2]; CA-MRSA (n = 10)", "value": 0.00, "unit": "%"}, {"measurement": "isolates resistant (Kirby-Bauer disc diffusion)", "setting": "[2]; HA-MRSA (n = 10)", "value": 20.00, "unit": "%"}, {"measurement": "isolates resistant (Kirby-Bauer disc diffusion)", "setting": "[2]; [3]", "value": 0.00, "unit": "%"}, {"measurement": "Total isolates resistant (Kirby-Bauer disc diffusion)", "setting": "[2]", "value": 20.00, "unit": "%"}]}]}
